Several values for one entry are separate records, joined by “and”; a condition that tells them apart may be missing. Equal entries are not always repeated.
Experiments:
hECaC2 [1] = assay: Quantitative TaqMan PCR of hECaC2 mRNA (normalized to GAPDH) in cultured human epidermal keratinocytes; format: cell-based; details: for increase in hECaC2 expression: 2 mM calcium and/or 1 μM VitD, relative to untreated, time-matched cultures
Protocol: Quantitative, TaqMan-based PCR was used to assess changes in mRNA levels for hECaC2 (normalized to GAPDH) from keratinocyte cultures grown in 2 mM calcium or 1 μM VitD over 1 and 3 days. mRNA levels are expressed as fold-changes versus levels measured in sibling cultures grown for 1 and 3 days in basal calcium (0.06 mM) and no VitD. VitD caused greater increases in hECaC2 expression than did calcium. […] Note differences in scaling of y-axes. All increases are significant from control with the exception of calcium at 1 day. Results are mean-±SEM from three experiments.
(§1) There is currently no published data on expression of either hECaC1 or hECaC2 in either primary human keratinocytes or human skin, although murine ECaC2 expression has been reported for mouse skin (Weber et al, 2001 Biochem Biophys Res Commun 289:1287-1294). Therefore, the inventors investigated if keratinocytes expressed either or both ECaC channels, and whether expression of these channels was correlated with cell differentiation stimulated by either calcium or VitD. […] However, hECaC2 expression was readily detected in these same cultures. At 1 and 3 days of culture hECaC2 expression levels were 0.014±0.002% and 0.005±0.0005% of GAPDH (N=3). […] Therefore, the observed absence of hECaC1 expression in keratinocytes was indeed due to the mRNA for this gene being at levels so low that they were undetectable.
(§2) The effects of elevated calcium or VitD on expression of hECaC1 or 2 in cultured keratinocytes were investigated. […] After 1 day in 2 mM calcium there was a small but consistent decrease in hECaC2 expression, which averaged approximately 85% of the untreated control.

hECaC1 [2] = assay: Quantitative PCR of hECaC1 expression in cultured human keratinocytes; format: cell-based; details: up to 3 days treatment with 2 mM calcium or 1 μM VitD
Text: as §1, §2

hECaC2 [3] = assay: Quantitative PCR of hECaC2 mRNA in cultured human skin biopsies (explant culture); format: cell-based; details: 1 μM VitD in culture medium (1.4 mM calcium), versus untreated biopsies cultured the same number of days
Protocol: Skin biopsies were taken from healthy donors and cultured for the indicated times with 1 μM VitD or with vehicle added to the culture medium. mRNA levels for hECaC2 were measured by quantitative PCR, normalized to GAPDH, and fold changes in expression were calculated relative to vehicle treated controls. Results are mean±SEM from two experiments.
The effect of VitD on hECaC2 expression in skin explants over time in culture was next examined, but the dynamics of gene expression in this system had to first be defined. All experiments with explant, cultured skin biopsies were performed in medium containing 1.4 mM calcium, a requirement for long-term viability (Varani et al, 1993 Am J Pathol 142:189-198). Biopsies placed in RNALater at time of collection were used to define expression levels of these genes at “−1” days in culture. Biopsies for which RNA was extracted immediately upon arrival in the lab (after overnight shipping from the source) were designated as “0” days in culture. Data for days 1 and 3 are from biopsies which were then cultured in the lab. All biopsies for an experiment were from the same donor.

hECaC1 [4] = details: 1 μM VitD, cultured skin biopsies
Protocol: The effect of VitD on gene expression in cultured biopsies was assessed by comparing mRNA levels in the treated biopsies to levels in untreated biopsies cultured for the same number of days (FIG. 4).

hECaC2 [5] = details: Caco-2 cells; Wood et al, 2001; cited from earlier work
murine ECaC1 or 2 = details: including in skin; Weber et al, 2001; cited from earlier work

Compound | hECaC2 expression, % of the untreated control (hECaC2 [1]; 1 day in 2 mM calcium) | increase in hECaC2 expression (hECaC2 [1]; 3 days treatment) | hECaC1 expression (hECaC1 [2]) | increase in hECaC2 expression (hECaC2 [1]; 1 day treatment) | increase in hECaC2 expression (hECaC2 [3]; 1 day) | increase in hECaC2 expression (hECaC2 [3]; 3 days) | hECaC1 expression in response to VitD (hECaC1 [4]) | hECaC2 expression response to VitD (hECaC2 [5]) | murine ECaC1 or 2 expression response to VitD (murine ECaC1 or 2)
[Ca+2] [calcium] | approximately 85% | approximately 3.8 fold | not detected |  |  |  |  |  | 
Vitamin D [VitD] |  | 51 fold | not detected | 63 fold and 60 fold | 3.6 fold | 7.8 fold | nor was expression induced | upregulated | unresponsive

Source: patent publication US20040087480A1, “Calcium channel target for controlling epidermal keratinocyte growth in psoriasis, and basal and squamous cell carcinomas” (Fujisawa Pharmaceutical Co. Ltd., priority 2002, published 2004)
